What was measured:
Assay type in all cases: in vivo
Setaria viridis [1] = assay: Growth-chamber post-emergence herbicidal assay (Example 2)
Experimental: (§1) Herbicidal activity was determined by post-emergence application on 8-day old plants (weeds) of the Amaranthus palmeri and Setaria viridis species that were grown at 16 hours/8 hours day/night cycles at 30° C./25° C., respectively. Leaf stage was typically 4-6 for A. palmeri and 3-4 for S. viridis.
(§2) In each treatment, 2-3 pots, each containing about 5 plants each (for Setaria viridis), and one 9-pack, containing about 9 plants (for Amaranthus palmeri), were sprayed using a VL-SET Paasche Airbrush with 0.3-1.5 ml solution containing 0.125-2 mg/ml of a tested compound, which is equivalent to about 125-2000 g/ha.
(§3) Damage assessment: Herbicidal activity was assessed and scored 3-4 days after application by visual inspection of the plants in comparison to plants treated with the formulation alone (with no active ingredient) as control. Activity score is in the range of 0 to 100, where 0 represents no herbicidal activity like control plants and 100 represents the maximal herbicidal activity (i.e., total death of the plant).
Herbicidal activity scores 3-4 days after application are presented Table 3 below.

Amaranthus palmeri [2] = assay: as above
Experimental: as §1, §2, §3
Formulation design: Compounds were tested on A. Palmeri in various formulations, and in varying concentrations for each of the tested formulations, in order to determine optimal conditions for its application and performance. Activity scores were determined as described hereinabove. Solubility scores were determined by visual inspection on a scale of 1-10, with 10 representing complete solubilization and 1 represents nullified solubilization.
Each of the obtained solution was then mixed with different adjuvants and applied at a rate equivalent to 500 g/ha for A. palmeri and 1000 g/ha for S. viridis. Herbicidal activity scores 3-4 days after application are presented Table 3 below.

Setaria viridis [3] = assay: Growth-chamber post-emergence assay (Example 8)
Experimental: as §1, with “activity of Compounds 1B, 3, 4, 5 and 6” for “activity”
(§4) In each treatment, between 1 to 4 pots (8×12 cm), containing about 6 Amaranthus palmeri or Setaria viridis plants, were sprayed using a VL-SET Paasche Airbrush with a 1 ml-solution containing 0.250-2 mg/ml of the tested compound, which is equivalent to about 250-2000 g/ha.
as §3

Amaranthus palmeri [4] = assay: Growth-chamber post-emergence assay (Example 8)
Experimental: as §1, with “activity of Compounds 1B, 3, 4, 5 and 6” for “activity”
as §4, §3

[5] = 1000 g/ha, 8.6% Acetophenone, 1% TWEEN 80, 1.4% NMP, 0.5% ECO, 0.5% Ca-LAS, 0.05% Break-Thru
[6] = 250 g/ha, 10% Acetone, 1.85% MIPA, 5% DMSO, 0.23% Genapol, 1.85% HASTEN
[7] = 250 g/ha, 14% Acetone, 2% MIPA, 5% DMSO, 1% TWEEN20, 2% HASTEN
[8] = 330 g/ha, 5% Acetone, 2% MIPA, 2.5% DMSO, 0.25% Genapol, 2% HASTEN
[9] = 330 g/ha, 10% Acetone, 0.8% MIPA, 5% DMSO, 0.25% Genapol, 2% HASTEN
[10] = 330 g/ha, 10% Acetone, 2% MIPA, 5% DMSO, 0.25% Genapol, 2% HASTEN
[11] = 500 g/ha, 18.5% Acetone, 2% MIPA, 5% DMSO, 1% TWEEN20, 2% HASTEN
[12] = 2000 g/ha, 8.6% Acetophenone, 2% TWEEN 20, 1.4% NMP, 0.5% ECO, 0.5% Ca-LAS, 0.05% Break-Thru
[13] = 500 g/ha, 10% Acetone, 1.7% MIPA, 5% DMSO, 0.85% TWEEN20, 1.7% HASTEN
[14] = 1000 g/ha, 2% MIPA, 2% DMSO, 1% TWEEN20, 2% HASTEN
[15] = 2000 g/ha, 2% MIPA, 2% DMSO, 1% TWEEN20, 2% HASTEN
[16] = 250 g/ha, 2% MIPA, 2% DMSO, 0.25% Genapol, 2% HASTEN
[17] = 500 g/ha, 2% MIPA, 2% DMSO, 0.25% Genapol, 2% HASTEN
[18] = 1000 g/ha, 2% MIPA, 2% DMSO, 0.25% Genapol, 2% HASTEN, 3-4 days after application, scale 0-100
[19] = 2000 g/ha, 2% MIPA, 1% TWEEN20, 2% HASTEN

With O=C(O)c1ccc2c(c1)C(=O)c1ccccc1C2=O [Compound 2] the “Activity Score” value (Setaria viridis [1]; 1500 g/ha, 2% DMSO, 1% TWEEN 80, 0.05M Tris buffer pH 8, 0.05% Break-Thru) was 40, the “Activity Score” value (Amaranthus palmeri [2]; 500 g/ha, 4.3% Acetophenone, 1% TWEEN 80, 0.7% NMP, 0.25% ECO, 0.25% Ca-LAS, 0.05% Break-Thru) was 100 and the “Activity Score” value (Amaranthus palmeri [2]; [5]) was 95. The “Activity Score” value (Amaranthus palmeri [2]; 2000 g/ha, 2% DMSO, 1% TWEEN 80, 0.05M Tris buffer pH 8, 0.05% Break-Thru) was 100.

Work on O=C1c2ccccc2C(=O)c2cc(CO)ccc21 [Compound 4] yielded a Herbicidal activity score (Setaria viridis [3]; [6]) of 45, a Herbicidal activity score (Setaria viridis [3]; [7]) of 90 and a Herbicidal activity score (Setaria viridis [3]; [8]) of 80. For the same compound, the Herbicidal activity score (Setaria viridis [3]; [9]) was 75, the Herbicidal activity score (Setaria viridis [3]; [10]) was 88 and the Herbicidal activity score (Setaria viridis [3]; [11]) was 50. The Herbicidal activity score (Amaranthus palmeri [4]; [6]) was 85, the Herbicidal activity score (Amaranthus palmeri [4]; [7]) was 90 and the Herbicidal activity score (Amaranthus palmeri [4]; [8]) was 88. For the same compound, the Herbicidal activity score (Amaranthus palmeri [4]; [9]) was 93, the Herbicidal activity score (Amaranthus palmeri [4]; [10]) was 80 and the Herbicidal activity score (Amaranthus palmeri [4]; [11]) was 95. The “Activity Score” value (Setaria viridis [1]; 1500 g/ha, 6% DMSO, 0.05% Break-Thru) was 40, the “Activity Score” value (Amaranthus palmeri [2]; [5]) was 95 and the “Activity Score” value (Amaranthus palmeri [2]; 1500 g/ha, 8.6% Acetophenone, 4% TWEEN 20, 1.4% NMP, 0.5% ECO, 0.5% Ca-LAS, 0.05% Break-Thru) was 95.

With Nc1ccc(O)c2c1C(=O)c1ccccc1C2=O [Compound 7] the “Activity Score” value (Amaranthus palmeri [2]; [12]) was 40.

COC(=O)c1ccc2c(c1O)C(=O)c1ccccc1C2=O [Compound 3] gave a Herbicidal activity score (Setaria viridis [3]; [6]) of 63, a Herbicidal activity score (Setaria viridis [3]; [13]) of 88 and a Herbicidal activity score (Setaria viridis [3]; [14]) of 95. The Herbicidal activity score (Setaria viridis [3]; [15]) was 100, the Herbicidal activity score (Amaranthus palmeri [4]; [6]) was 91 and the Herbicidal activity score (Amaranthus palmeri [4]; [13]) was 99. For the same compound, the Herbicidal activity score (Amaranthus palmeri [4]; [14]) was 95, the Herbicidal activity score (Amaranthus palmeri [4]; [15]) was 95 and the “Activity Score” value (Setaria viridis [1]; [12]) was 10. The “Activity Score” value (Amaranthus palmeri [2]; [12]) was 80.

In the case of O=C1c2ccccc2C(=O)c2c(O)cccc21 [Compound 6], the Herbicidal activity score (Setaria viridis [3]; [7]) was 90, the Herbicidal activity score (Setaria viridis [3]; [11]) was 40 and the Herbicidal activity score (Setaria viridis [3]; [14]) was 90. For the same compound, the Herbicidal activity score (Setaria viridis [3]; [15]) was 95, the Herbicidal activity score (Amaranthus palmeri [4]; [7]) was 10 and the Herbicidal activity score (Amaranthus palmeri [4]; [11]) was 70. The Herbicidal activity score (Amaranthus palmeri [4]; [14]) was 70, the Herbicidal activity score (Amaranthus palmeri [4]; [15]) was 90 and the “Activity Score” value (Setaria viridis [1]; [5]) was 80. For the same compound, the “Activity Score” value (Amaranthus palmeri [2]; 1500 g/ha, 8.6% Acetophenone, 1% TWEEN 80, 1.4% NMP, 0.5% ECO, 0.5% Ca-LAS, 0.05% Break-Thru) was 75.

With O=C(O)c1cc(O)c2c(c1)C(=O)c1cccc(O[C@@H]3O[C@H](CO)[C@@H](O)[C@H](O)[C@H]3O)c1C2=O [Compound 1B, Rhein 8-glucoside] the Herbicidal activity score (Setaria viridis [3]; [16]) was 70, the Herbicidal activity score (Setaria viridis [3]; [17]) was 95 and the Herbicidal activity score (Setaria viridis [3]; [18]) was 90. It also gave a Herbicidal activity score (Amaranthus palmeri [4]; [16]) of 85, a Herbicidal activity score (Amaranthus palmeri [4]; [17]) of 100 and a Herbicidal activity score (Amaranthus palmeri [4]; [18]) of 100. For the same compound, the “Activity Score” value (Setaria viridis [1]; 750* g/ha (rate adjusted to reflect that of the Rhein actual active ingredient), 1% Eta-70, 5.7 mM MIPA, 0.05% Break-Thru) was 50, the “Activity Score” value (Amaranthus palmeri [2]; 500 g/ha, 2% TWEEN 20, 0.05M Tris buffer pH 8.3, 0.05% Break-Thru) was 30 and the “Activity Score” value (Amaranthus palmeri [2]; 750* g/ha (rate adjusted to reflect that of the Rhein actual active ingredient), 2% TWEEN 20, 5.7 mM MIPA, 0.05% Break-Thru) was 70.

Cc1cc(O)c2c(c1)C(=O)c1cc(O)cc(O)c1C2=O [Compound 5] gave a Herbicidal activity score (Setaria viridis [3]; [14]) of 75, a Herbicidal activity score (Setaria viridis [3]; [19]) of 90 and a Herbicidal activity score (Amaranthus palmeri [4]; [14]) of 95. For the same compound, the Herbicidal activity score (Amaranthus palmeri [4]; [19]) was 100 and the “Activity Score” value (Amaranthus palmeri [2]; [12]) was 70.
